In paper PMC11791882:

Assay: on-resin side-chain lactamisation Lys(NH2)/Glu(COOH) after Pd(0)/PhSiH3 removal of Alloc/OAll; DIC 30 eq + OxymaPure 30 eq; ProTide resin 0.19 mmol/g, ca. 300 mL DCM, 2 days
Conditions: the molecule shown is the open-chain precursor, 57-membered ring, scale: % HPLC purity of cyclic product

Row | Substance | ring closure, conversion by HPLC (48.0 h) | ring closure, conversion by HPLC (168.0 h)
1 | Fmoc-Thr(tBu)-Lys(NH2)-Asn(Trt)-His(Trt)-Gln(Trt)-Gly-Leu-Gly-Arg(Pbf)-Gly-Asp(OtBu)-Gln(Trt)-Thr(tBu)-Thr(tBu)-Pro-Ala-Gln(Trt)-Glu(COOH)-Ala-Gln(Trt)-Thr(tBu)-Gly-Trp(Boc)-Val-Gln(Trt)-Asn(Trt)-NH-ProTide resin | 80.8 | –
2 | Fmoc-Thr(tBu)-Lys(NH2)-Asn(Trt)-His(Trt)-Gln(Trt)-Gly-Pro-Gly-Arg(Pbf)-Gly-Asp(OtBu)-Gln(Trt)-Thr(tBu)-Thr(tBu)-Leu-Ala-Gln(Trt)-Glu(COOH)-Ala-Gln(Trt)-Thr(tBu)-Gly-Trp(Boc)-Val-Gln(Trt)-Asn(Trt)-NH-ProTide resin | – | 0
3 | Fmoc-Thr(tBu)-Lys(NH2)-Asn(Trt)-His(Trt)-Gln(Trt)-Ser(tBu)-Ala-Gln(Trt)-Arg(Pbf)-Gly-Asp(OtBu)-Leu-Thr(tBu)-Thr(tBu)-Pro-Ala-Gln(Trt)-Glu(COOH)-Ala-Gln(Trt)-Thr(tBu)-Gly-Trp(Boc)-Val-Gln(Trt)-Asn(Trt)-NH-ProTide resin | 73.9 | –
4 | Fmoc-Thr(tBu)-Lys(NH2)-Asn(Trt)-His(Trt)-Gln(Trt)-Gly-Pro-Gly-Arg(Pbf)-Gly-Asp(OtBu)-Gln(Trt)-Thr(tBu)-Thr(tBu)-Pro-Ala-Gln(Trt)-Glu(COOH)-Ala-Gln(Trt)-Thr(tBu)-Gly-Trp(Boc)-Val-Gln(Trt)-Asn(Trt)-NH-ProTide resin | 88.6 | –
